Activity calls are given as the source filed them.
Assays:
[1] = Luminescence Cell-Based Dose Response HTS to Identify Activators of Luciferase Translation or Activity in H4 […] Cells. [Related pubchem assays: 1829 (Project Summary), 1814 (Primary HTS)]; type: functional
[2] = Luminescence Cell-Based Dose Confirmation to Identify Activators of 5'UTR Stem-Loop Driven Alpha-Synuclein mRNA Translation in H4 Neuroglioblastoma Cells. [Related pubchem assays: 1829 (Project Summary), 1814 (Primary HTS)]; type: functional
H4 = test: Luminescence Cell-Based Dose Response HTS to Identify Activators of 5'UTR Stem-Loop Driven Prion Protein mRNA Translation in H4 Neuroglioblastoma Cells. [Related pubchem assays: 1829 (Project Summary), 1814 (Primary HTS)]; type: functional; settings: Homo sapiens
[3] = Luminescence Cell-Based Dose Response to Identify Activators of 5'UTR Stem-Loop Driven Prion Protein mRNA Translation in H4-C Neuroglioblastoma Cells. [Related pubchem assays: 1829 (Project Summary), 1814 (Primary HTS)]; type: functional
[4] = Luminescence Cell-Based Dose Response to Identify Activators of Luciferase Translation or Activity in H4-C Neuroglioblastoma Cells. [Related pubchem assays: 1829 (Project Summary), 1814 (Primary HTS)]; type: functional
[5] = molecular target: T1, Corticotropin-releasing factor receptor 2/Corticotropin-releasing factor-binding protein (Homo sapiens, UniProt P24387+Q13324); test: Dose Response confirmation of uHTS hits for small molecule antagonists of the CRF-binding protein and CRF-R2 receptor complex.; type: functional; settings: read-out: IC50_Mean
T1 sequence (Q13324 whole entry): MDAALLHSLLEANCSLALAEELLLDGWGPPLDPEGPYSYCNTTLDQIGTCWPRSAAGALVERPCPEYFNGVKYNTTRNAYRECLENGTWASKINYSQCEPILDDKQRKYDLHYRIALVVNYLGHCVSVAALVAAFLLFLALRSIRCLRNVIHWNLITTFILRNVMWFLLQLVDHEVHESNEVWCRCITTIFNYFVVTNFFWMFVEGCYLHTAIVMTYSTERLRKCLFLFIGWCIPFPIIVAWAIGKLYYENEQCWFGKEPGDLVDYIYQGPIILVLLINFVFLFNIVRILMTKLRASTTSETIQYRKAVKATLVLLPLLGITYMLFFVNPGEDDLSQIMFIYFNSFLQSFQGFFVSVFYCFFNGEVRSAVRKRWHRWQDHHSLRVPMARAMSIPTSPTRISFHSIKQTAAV
T1 sequence (P24387 whole entry): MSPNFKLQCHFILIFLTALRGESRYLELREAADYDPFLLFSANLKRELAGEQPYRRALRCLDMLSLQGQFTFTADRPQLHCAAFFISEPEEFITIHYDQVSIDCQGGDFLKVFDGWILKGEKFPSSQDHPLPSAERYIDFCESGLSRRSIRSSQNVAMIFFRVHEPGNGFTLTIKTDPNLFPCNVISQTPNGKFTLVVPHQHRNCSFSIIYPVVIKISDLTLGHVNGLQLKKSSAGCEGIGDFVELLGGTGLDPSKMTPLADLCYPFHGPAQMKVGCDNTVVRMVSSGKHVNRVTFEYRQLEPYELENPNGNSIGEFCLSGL

[6] = blockers of CRF-binding protein–CRF-R2 complex – cell-based, uHTS hits, 384-well, dose response (AID 651639); type: functional, Homo sapiens; settings: read-out: IC50_Mean
[7] = molecular target: T1, Corticotropin-releasing factor receptor 2/Corticotropin-releasing factor-binding protein; test: activators of CRF receptor 2 with binding protein – uHTS hits, confirmation (AID 602473); type: functional; settings: read-out: EC50_Mean
Genome polyprotein = Genome polyprotein (dengue virus type 2, UniProt P29990); test: flavivirus cap methylation enzyme inhibition – biochemical, confirmation dose response, primary screen (AID 588689); type: functional
HEK293 [8] = test: NOD2 signaling inhibitors in MDP-stimulated cells, cell-based, uHTS, luminescence (AID 2001); type: functional; settings: Homo sapiens
HEK293 [9] = test: cells; type: functional, cell-based; settings: Homo sapiens
[10] = molecular target: T2, RNA-binding protein pos-1 (Caenorhabditis elegans, UniProt G5EF15); test: disruptors of C. elegans POS-1 RNA interaction – biochemical, fluorescence polarization, dose response (AID 1964);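 further: purified POS-1 fused to maltose binding protein made in E. coli; potency of compounds blocking POS-1 binding to fluorescent RNA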
T2 sequence (G5EF15 whole entry): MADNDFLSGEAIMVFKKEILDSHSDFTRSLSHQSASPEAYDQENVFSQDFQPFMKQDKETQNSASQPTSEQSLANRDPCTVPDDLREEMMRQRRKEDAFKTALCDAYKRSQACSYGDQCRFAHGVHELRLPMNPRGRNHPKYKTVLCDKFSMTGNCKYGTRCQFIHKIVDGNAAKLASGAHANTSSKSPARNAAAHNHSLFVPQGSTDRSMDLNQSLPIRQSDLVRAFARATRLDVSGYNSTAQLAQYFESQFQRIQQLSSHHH

HEK293 [11] = test: inhibition of NOD1-driven NF-kB reporter – cell-based, luminescence, uHTS, primary screen (AID 1578); type: functional; settings: Homo sapiens
[12] = molecular target: T3, Zinc finger protein mex-5 (Caenorhabditis elegans, UniProt Q9XUB2); test: potency of MEX-5 RNA-binding blockers – biochemical, C. elegans, fluorescence polarization, dose response (AID 1960)
T3 sequence (Q9XUB2 whole entry): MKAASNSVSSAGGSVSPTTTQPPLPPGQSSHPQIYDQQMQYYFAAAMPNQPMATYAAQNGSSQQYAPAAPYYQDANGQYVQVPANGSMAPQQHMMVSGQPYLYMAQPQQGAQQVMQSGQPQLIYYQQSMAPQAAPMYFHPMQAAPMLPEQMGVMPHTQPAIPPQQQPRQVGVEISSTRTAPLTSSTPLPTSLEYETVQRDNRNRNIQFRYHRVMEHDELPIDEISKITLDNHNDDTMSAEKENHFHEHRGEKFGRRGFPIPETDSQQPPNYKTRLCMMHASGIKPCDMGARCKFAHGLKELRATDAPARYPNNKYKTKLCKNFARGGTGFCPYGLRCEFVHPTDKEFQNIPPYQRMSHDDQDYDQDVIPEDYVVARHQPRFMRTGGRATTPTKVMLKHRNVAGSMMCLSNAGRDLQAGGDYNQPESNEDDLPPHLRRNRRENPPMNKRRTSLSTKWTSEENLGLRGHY

HEK293 [13] = test: cells; type: functional, cell-based; settings: Homo sapiens; remark: listed apart in the source
[14] = HIV-1 Vif–A3G interaction blockers – biochemical, TR-FRET, GST-Vif 1-94, biotin-A3G peptide, dose response retest, primary screen (AID 1117319); type: functional;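 further: TR-FRET signal of purified GST-Vif binding a biotinylated A3G peptide; inhibitors lower the FRET signal by blocking Vif and A3G binding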
[15] = molecular target: FAD-linked sulfhydryl oxidase ALR (Homo sapiens, UniProt P55789); test: ALR-catalysed DTT oxidation blockers – biochemical, H2O2 detection, luminescence, cherry-pick, dose response (AID 493248)
[16] = Luminescence Cell-Based Dose Confirmation HTS to Identify Activators of 5'UTR Stem-Loop Driven Alpha-Synuclein mRNA Translation in H4 Neuroglioblastoma Cells. [Related pubchem assays: 1829 (Project Summary), 1814 (Primary HTS)]; type: functional
[17] = molecular target: T4, Short transient receptor potential channel 4 (Mus musculus, UniProt Q9QUQ5); test: calcium entry via TRPC4 opening agents – cell-based, HEK293 TRPC4/mu-opioid, Fluo-4 calcium, dose response (AID 434937); type: functional
T4 sequence (Q9QUQ5 whole entry): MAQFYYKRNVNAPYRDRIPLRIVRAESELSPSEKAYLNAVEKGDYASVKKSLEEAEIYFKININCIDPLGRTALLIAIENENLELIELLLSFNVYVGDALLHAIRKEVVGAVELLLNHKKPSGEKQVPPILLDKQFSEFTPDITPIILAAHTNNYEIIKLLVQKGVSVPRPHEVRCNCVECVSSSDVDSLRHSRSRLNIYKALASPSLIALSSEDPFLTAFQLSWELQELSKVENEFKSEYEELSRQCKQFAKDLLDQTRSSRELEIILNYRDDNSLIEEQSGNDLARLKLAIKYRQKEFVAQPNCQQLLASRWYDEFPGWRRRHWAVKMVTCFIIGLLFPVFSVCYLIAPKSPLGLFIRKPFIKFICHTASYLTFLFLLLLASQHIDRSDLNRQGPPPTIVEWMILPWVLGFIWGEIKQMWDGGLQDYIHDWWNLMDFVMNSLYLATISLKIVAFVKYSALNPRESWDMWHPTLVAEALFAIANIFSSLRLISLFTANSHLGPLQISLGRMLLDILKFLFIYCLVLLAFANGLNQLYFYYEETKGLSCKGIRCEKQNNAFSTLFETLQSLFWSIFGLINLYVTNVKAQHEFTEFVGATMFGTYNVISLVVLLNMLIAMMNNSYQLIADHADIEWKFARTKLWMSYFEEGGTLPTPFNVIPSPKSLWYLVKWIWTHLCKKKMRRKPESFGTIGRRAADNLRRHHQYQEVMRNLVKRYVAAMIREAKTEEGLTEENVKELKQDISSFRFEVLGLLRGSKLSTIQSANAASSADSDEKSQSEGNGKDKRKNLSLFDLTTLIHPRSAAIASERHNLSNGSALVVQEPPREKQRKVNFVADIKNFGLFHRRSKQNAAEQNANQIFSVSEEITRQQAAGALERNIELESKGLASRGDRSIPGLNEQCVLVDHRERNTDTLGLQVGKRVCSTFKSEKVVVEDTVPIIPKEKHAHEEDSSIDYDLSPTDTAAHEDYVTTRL

cells [18] = type: functional, cell-based
cells [19] = type: functional, cell-based; remark: listed apart in the source
Nonstructural protein 1 = Nonstructural protein 1 (Influenza A virus, UniProt Q194T2); type: functional, Influenza A virus (A/California/07/2009(H1N1))
[20] = molecular target: Heat shock protein HSP 90-alpha (Homo sapiens, UniProt P07900); type: functional, organism-based
[21] = A549 cell cytotoxicity, dose response, cytotoxicity control, plate reader, cherry-pick, antagonist series (AID 743412); type: functional, cell-based
[22] = blockers of bursicon-stimulated LGR2 cAMP reporter – cell-based, HEK293, CRE-luciferase reporter, cherry pick, set 2, dose response (AID 743343); type: functional;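 further: transfected cells were stimulated with diluted bursicon conditioned medium after compound addition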
[23] = blockade of melanocortin 4 receptor signaling – cell-based, plate reader, cherry pick, counter-screen for LGR2 antagonist project, dose response (AID 743444); type: functional;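 further: transfected HEK 293 cells stimulated with alpha-MSH peptide; potency of inhibitors of the alpha-MSH evoked signal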
[24] = toxicity toward HepG2 liver cells – cell-based, plate reader, cherry-pick, antagonist series, cytotoxicity control, dose response (AID 743416); type: functional

Genome polyprotein, sequence (P29990 2492-3391 limits assumed): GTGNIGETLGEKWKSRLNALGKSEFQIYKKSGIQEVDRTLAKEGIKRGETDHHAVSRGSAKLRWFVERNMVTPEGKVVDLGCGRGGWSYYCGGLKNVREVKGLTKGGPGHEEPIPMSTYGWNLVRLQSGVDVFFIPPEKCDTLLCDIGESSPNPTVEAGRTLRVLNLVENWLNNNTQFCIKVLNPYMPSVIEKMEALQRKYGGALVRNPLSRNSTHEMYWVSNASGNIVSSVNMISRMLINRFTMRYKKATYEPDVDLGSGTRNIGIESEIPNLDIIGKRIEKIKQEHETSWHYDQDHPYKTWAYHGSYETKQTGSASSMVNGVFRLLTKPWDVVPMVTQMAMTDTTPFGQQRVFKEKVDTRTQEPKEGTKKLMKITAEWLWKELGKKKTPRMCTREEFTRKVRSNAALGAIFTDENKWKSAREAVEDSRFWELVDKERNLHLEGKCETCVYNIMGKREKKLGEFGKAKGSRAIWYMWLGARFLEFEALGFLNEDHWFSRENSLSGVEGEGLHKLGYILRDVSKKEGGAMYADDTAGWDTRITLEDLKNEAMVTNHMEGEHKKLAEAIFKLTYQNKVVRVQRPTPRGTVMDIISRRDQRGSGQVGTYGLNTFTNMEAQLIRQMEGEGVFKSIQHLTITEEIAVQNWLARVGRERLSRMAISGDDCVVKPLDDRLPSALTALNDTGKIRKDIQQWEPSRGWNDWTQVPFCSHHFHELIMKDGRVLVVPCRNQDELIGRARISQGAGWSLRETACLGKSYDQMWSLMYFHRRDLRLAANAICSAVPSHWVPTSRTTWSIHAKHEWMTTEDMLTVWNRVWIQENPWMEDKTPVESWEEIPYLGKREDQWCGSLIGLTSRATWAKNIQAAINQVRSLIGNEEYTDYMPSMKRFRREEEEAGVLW
FAD-linked sulfhydryl oxidase ALR, sequence (P55789 whole entry): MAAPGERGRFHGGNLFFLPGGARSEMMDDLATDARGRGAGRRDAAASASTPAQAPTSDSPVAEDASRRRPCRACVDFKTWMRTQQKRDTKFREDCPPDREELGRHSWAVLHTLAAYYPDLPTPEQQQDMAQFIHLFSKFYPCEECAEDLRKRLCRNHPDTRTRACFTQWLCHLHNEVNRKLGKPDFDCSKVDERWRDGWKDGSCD
Nonstructural protein 1, sequence (Q194T2 whole entry): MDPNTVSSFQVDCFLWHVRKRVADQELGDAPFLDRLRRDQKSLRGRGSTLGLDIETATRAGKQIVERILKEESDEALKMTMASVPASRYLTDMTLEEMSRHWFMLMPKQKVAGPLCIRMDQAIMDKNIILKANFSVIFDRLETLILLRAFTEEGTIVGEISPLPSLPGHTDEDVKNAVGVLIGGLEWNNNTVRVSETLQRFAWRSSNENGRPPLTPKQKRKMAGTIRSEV

## COC(=O)CSc1nc(-c2cccs2)ccc1C#N
[1]
  EC50: < 0.1 µM (active)
[2]
  EC50: 0.219 µM (active)
H4
  EC50: 0.261 µM (active)
[3]
  EC50: 0.307 µM (active)
[4]
  EC50: 0.179 µM (active)

## Cc1ccc(-n2nnnc2SCc2nnc(-c3ccccc3Br)o2)cc1
[5]
  IC50: 11 µM (active)
[6]
  IC50: 3.85 µM (active)
[7]
  EC50: > 53 µM (inactive)

## COC(=O)c1ccccc1NC(=O)c1cccc(COc2ccccc2Cl)c1
[1]
  EC50: < 0.1 µM (active)
[2]
  EC50: 0.299 µM (active)
[3]
  EC50: 0.809 µM (active)
[4]
  EC50: 0.295 µM (active)

## COc1cc(NC(=O)CSc2ncnc3sc4c(c23)CCC(C)C4)c(C(=O)O)cc1OC (configuration not stated)
Genome polyprotein
  IC50: 86 µM (active)

## Cc1cccc2cc3c(N)c(C(=O)Nc4ccc(N5CCOCC5)cc4)sc3nc12
HEK293 [8]
  IC50: 7.54 µM (inactive)
HEK293 [9]
  IC50: > 20 µM (inactive)
[10]
  EC50: > 300 µM (not active)
HEK293 [11]
  EC50: 18.7 µM (active)
[12]
  EC50: > 300 µM (not active)
HEK293 [13]
  IC50: 5.5 µM (active)

## Cc1cccc(CSc2nc3c(c(=O)n2C)SCC3)c1
[5]
  IC50: < 0.368 µM (active)
[6]
  IC50: > 20 µM (inactive)
[7]
  EC50: > 53 µM (inactive)

## CCCn1nc(Oc2nc(SC)nc(N(C)C)n2)ccc1=O
[14]
  IC50: > 100 µM (active)

## CCCC(=O)N1CCc2cc(-c3nc(N)sc3C)ccc21
[5]
  IC50: > 47.1 µM (inactive)
[1]
  EC50: 31.9 µM (active)
[15]
  AC50: 0.149 µM (active)
H4
  EC50: 44.6 µM (active)
[16]
  EC50: 43.5 µM (active)
[17]
  EC50: 0.376 µM (active)
[7]
  EC50: > 53 µM (inactive)

## Cc1nc2nc(-c3ccco3)nn2c(C)c1Cl
Cells [18]
  EC50: > 350 µM (not active)
Cells [19]
  EC50: > 350 µM (not active)
[14]
  IC50: > 100 µM (active)

## CC(=NNC(=S)N(Cc1ccccn1)Cc1ccccn1)c1cnccn1
Nonstructural protein 1
  IC50: 1.18 µM (active)
[20]
  AC50: 3.3 µM (active)

## Oc1c(C(c2ccccc2)N2CCOCC2)ccc2ccccc12 (configuration not stated)
[20]
  AC50: 7.26 µM (active)

## C#CCOc1ccc(/C=C2/C(=O)N(c3ccc(S(N)(=O)=O)cc3)N=C2C)cc1OC
Genome polyprotein
  IC50: > 100 µM (active)

## COc1ccc(NC(=O)CN2CCC(C(N)=O)CC2)cc1
[14]
  IC50: > 100 µM (active)

## S=C(NCCc1ccccc1)N1CCC2CC1c1c(Cl)cccc12 (configuration not stated)
[5]
  IC50: 28.9 µM (active)
[6]
  IC50: > 20 µM (inactive)
[7]
  EC50: > 53 µM (inactive)

## Cc1cs/c(=N\c2ccccc2)n1Cc1ccco1
[5]
  IC50: 38.4 µM (active)
[6]
  IC50: > 20 µM (inactive)
[7]
  EC50: > 53 µM (inactive)

## Cc1cc(C)n2c(Nc3ccc4c(c3)OCCO4)c(-c3cc4ccccc4o3)nc2n1
[21]
  AC50: 29.8 µM (active)
[22]
  AC50: 12.7 µM (active)
[23]
  AC50: 22.8 µM (active)
[24]
  AC50: > 52 µM (inactive)

## CC1C/C(=N/N2C(=O)CSC2=S)CC(C)(C)C1 (configuration not stated)
[14]
  IC50: > 100 µM (active)

## COc1ccc(/C=c2\sc3nc(=O)c(C)nn3c2=O)c(OC)c1
[10]
  EC50: > 300 µM (not active)
[12]
  EC50: 88 µM (active)
Genome polyprotein
  IC50: 22.1 µM (active)
